The text below walks through data of ChEMBL document CHEMBL4387766, “Synthesis and biological evaluation of PSMA-targeting paclitaxel conjugates” (Bioorg Med Chem Lett, 2019).

A short description of data set [1]: Selectivity ratio of CC50 for human PSMA-deficient PC3 cells to CC50 for PSMA-positive human LNCAP cells. Format: functional.
The next data set has as its system PC-3. Kind of data set: Cytotoxicity against PSMA-deficient human PC3 cells assessed as reduction in cell viability measured after 72 hrs by MTT assay. Format: functional. The conditions noted are these: PC-3, 72 h. Background: Formazan colour is commonly taken as a measure of viable cells.
A short description of data set [2]: Cytotoxicity against human MCF7 cells assessed as reduction in cell viability measured after 72 hrs by MTT assay. Format: cell-based.
A further data set relates to CWR22R. Kind of data set: Cytotoxicity against PSMA-positive human 22Rv1 cells assessed as reduction in cell viability measured after 72 hrs by MTT assay. The data set is classed as functional. The conditions noted are these: 22Rv1, 72 h.
A short description of data set [3]: Selectivity ratio of CC50 for human VA13 cells to CC50 for PSMA-positive human LNCAP cells.
Data set [4] is described as follows: Cytotoxicity against human VA13 cells assessed as reduction in cell viability measured after 72 hrs by MTT assay. Format: cell-based. The conditions noted are these: WI-38 VA13 cells.
Data set [5] is described as follows: Selectivity ratio of CC50 for human PSMA-deficient PC3 cells to CC50 for PSMA-positive human 22Rv1 cells. Format: functional.
Data set [6] can be described thus: Selectivity ratio of CC50 for human VA13 cells to CC50 for PSMA-positive human 22Rv1 cells.
Data set [7] is described as follows: Cytotoxicity against HEK293T cells assessed as reduction in cell viability measured after 72 hrs by MTT assay. The data set is classed as cell-based, HEK-293T. The conditions noted are these: human.
A further data set relates to LNCaP. Kind of data set: Cytotoxicity against PSMA-positive human LNCAP cells assessed as reduction in cell viability measured after 72 hrs by MTT assay. The data set is classed as functional.
Data set [8] in a line: Cytotoxicity against human A549 cells assessed as reduction in cell viability measured after 72 hrs by MTT assay. Format: cell-based.

The structures appear in SMILES notation.

As for `CC(=O)O[C@H]1C(=O)[C@@]2(C)[C@H]([C@H](OC(=O)c3ccccc3)[C@]3(O)C[C@H](OC(=O)[C@H](OC(=O)CCCc4cn(CCCCCNC(=O)NCCCC[C@H](NC(=O)N[C@@H](CCC(=O)O)C(=O)O)C(=O)O)nn4)[C@@H](NC(=O)c4ccccc4)c4ccccc4)C(C)=C1C3(C)C)[C@]1(OC(C)=O)CO[C@@H]1C[C@@H]2O`, the Selectivity ratio stood at 0.99 in [1], 0.56 in data set [3], 1.09 in [5] and 0.61 in data set [6]. The CC50 (in general, the concentration at which the toxic effect on the cells reaches its halfway point) with PC-3 is 25 nM; with CWR22R, 34 nM; with LNCaP, 13 nM. For the same compound, the results for the CC50 at 72 h in [2], in data set [4] and in [7] were 56 nM, 37 nM and 14 nM, respectively.

`CC(=O)O[C@H]1C(=O)[C@@]2(C)[C@H]([C@H](OC(=O)c3ccccc3)[C@]3(O)C[C@H](OC(=O)[C@H](OC(=O)CCCc4cn(CCCCCC(=O)N(CCCC[C@H](NC(=O)N[C@@H](CCC(=O)O)C(=O)O)C(=O)O)Cc5ccc(Cl)cc5)nn4)[C@@H](NC(=O)c4ccccc4)c4ccccc4)C(C)=C1C3(C)C)[C@]1(OC(C)=O)CO[C@@H]1C[C@@H]2O`: the Selectivity ratio was 0.34 in data set [1], 0.26 in data set [3], 0.91 in [5] and 0.7 in [6]. The CC50 with PC-3 stood at 1030 nM; in the data set on CWR22R, 1670 nM; in the data set on LNCaP, 1480 nM. In addition, the CC50 at 72 h is 78 nM in data set [2], 48 nM in data set [4], under 30 nM in data set [8] and 40 nM in data set [7].

As to `CC(=O)O[C@H]1C(=O)[C@@]2(C)[C@H]([C@H](OC(=O)c3ccccc3)[C@]3(O)C[C@H](OC(=O)[C@H](OC(=O)CCCc4cn(CCCCCC(=O)N(CCCC[C@H](NC(=O)N[C@@H](CCC(=O)O)C(=O)O)C(=O)O)Cc5ccc(Br)cc5)nn4)[C@@H](NC(=O)c4ccccc4)c4ccccc4)C(C)=C1C3(C)C)[C@]1(OC(C)=O)CO[C@@H]1C[C@@H]2O`, the Selectivity ratio was 0.85 in data set [1], 0.33 in data set [3], 1.15 in data set [5] and 0.45 in data set [6]. Moreover, the CC50 turned out to be 876 nM in the data set with PC-3, 1130 nM in the data set on CWR22R and 510 nM in the data set with LNCaP. In addition, the CC50 at 72 h in data set [2] is 94 nM; in data set [4], 45 nM; in [8], under 30 nM; in data set [7], 38 nM.

For `CC(=O)O[C@H]1C(=O)[C@@]2(C)[C@H]([C@H](OC(=O)c3ccccc3)[C@]3(O)C[C@H](OC(=O)[C@H](OC(=O)CCCc4cn(CCCCCC(=O)N(CCCC[C@H](NC(=O)N[C@@H](CCC(=O)O)C(=O)O)C(=O)O)Cc5ccc(O)cc5)nn4)[C@@H](NC(=O)c4ccccc4)c4ccccc4)C(C)=C1C3(C)C)[C@]1(OC(C)=O)CO[C@@H]1C[C@@H]2O`, the Selectivity ratio in data set [1] came to 1.04; in [3], 0.37; in data set [5], 2.19; in data set [6], 0.78. For the same compound, the figures for the 50% cytotoxic concentration (CC50) in the data set with PC-3, in the data set on CWR22R and in the data set on LNCaP were 90 nM, 61 nM and 43 nM, respectively. The cytotoxic concentration (CC50) at 72 h in [2] was 169 nM; in data set [4] it was 65 nM; in data set [8], 20 nM; in [7] it was 23 nM.
